Test results from paper PMC2630467 (Journal of medicinal chemistry, 2008).
“Also recorded” adds a separate entry of the source.

Tests used:
CYP2C9 [1] = biological target: T1, CYP2C9 (Homo sapiens, UniProt P11712); assay: EPR studies on binding modes with ferric 2C9; settings: ferric 2C9 18.5 μM, substrate 1 mM, 20 K
CYP2C9 [2] = biological target: T1, CYP2C9; assay: UV difference spectroscopy of binding and substrate titrations with purified 2C9; settings: UV difference spectra 350-500 nm
CYP2C9 [3] = biological target: T1, CYP2C9; assay: Reconstituted purified 2C9 system inhibition; type: biochemical

T1 sequence (P11712 whole entry): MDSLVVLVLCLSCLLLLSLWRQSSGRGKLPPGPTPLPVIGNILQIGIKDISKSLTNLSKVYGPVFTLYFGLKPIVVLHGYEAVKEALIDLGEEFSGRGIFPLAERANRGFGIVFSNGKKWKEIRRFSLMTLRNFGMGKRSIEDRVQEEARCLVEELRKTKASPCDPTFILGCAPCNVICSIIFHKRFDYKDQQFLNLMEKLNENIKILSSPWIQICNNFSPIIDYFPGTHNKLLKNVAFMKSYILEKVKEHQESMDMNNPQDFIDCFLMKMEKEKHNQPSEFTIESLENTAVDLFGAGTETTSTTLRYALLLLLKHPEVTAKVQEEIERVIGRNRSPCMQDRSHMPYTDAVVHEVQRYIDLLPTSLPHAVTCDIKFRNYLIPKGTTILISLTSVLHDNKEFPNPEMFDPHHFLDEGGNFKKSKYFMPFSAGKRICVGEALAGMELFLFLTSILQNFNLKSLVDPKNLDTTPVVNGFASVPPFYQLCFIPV

Row | Binding Type EPR (CYP2C9 [1]) | Binding Type UV (CYP2C9 [2]) | Ki (CYP2C9 [3]) | SMILES
1 | Type I |  |  | O=C(Nc1ccc2ccccc2c1)c1cc(-c2cccnc2)nc2ccccc12 [Compound 8, N-(naphthalen-2-yl)-2-(pyridin-3-yl)quinoline-4-carboxamide]
2 | Type I |  |  | O=C(Nc1ccc2ccccc2c1)c1cc(-c2ccccn2)nc2ccccc12 [Compound 9, N-(naphthalen-2-yl)-2-(pyridin-2-yl)quinoline-4-carboxamide]
3 |  | mixed Type II and Type I binding modes |  | O=C(Nc1ccccc1)c1cc(-c2cccnc2)nc2ccccc12 [Compound 14, N-phenyl-2-(pyridin-3-yl)quinoline-4-carboxamide]
4 | Type I |  |  | Cc1cc(C)c2nc(-c3ccccn3)cc(C(=O)Nc3ccc4ccccc4c3)c2c1 [Compound 18, 6,8-dimethyl-N-(naphthalen-2-yl)-2-(pyridin-2-yl)quinoline-4-carboxamide]
5 | Type I |  |  | Cc1cc(C)c2nc(-c3cccnc3)cc(C(=O)Nc3ccc4ccccc4c3)c2c1 [Compound 17, 6,8-dimethyl-N-(naphthalen-2-yl)-2-(pyridin-3-yl)quinoline-4-carboxamide]

The remaining lines, values behind:

Row | SMILES | Binding Type EPR (CYP2C9 [1]) | Binding Type UV (CYP2C9 [2]) | Ki (CYP2C9 [3])
6 | O=C(Nc1ccccc1)c1cc(-c2ccccn2)nc2ccccc12 [Compound 15, N-phenyl-2-(pyridin-2-yl)quinoline-4-carboxamide] |  | does not give a either a Type I or Type II binding spectra | 
7 | O=C(Nc1ccc2ccccc2c1)c1cc(-c2ccncc2)nc2ccc(Cl)cc12 [Compound 19, 6-chloro-N-(naphthalen-2-yl)-2-(pyridin-4-yl)quinoline-4-carboxamide] | low-spin shift; also recorded: mixed mode; also recorded: Type II/Type I |  | 
8 | O=C(c1cc(-c2ccncc2)nc2ccccc12)N1CCCCC1 [Compound 1, Piperidin-1-yl(2-(pyridin-4-yl)quinolin-4-yl)methanone] | Type II | typical Type II binding spectra | 
9 | O=C(c1cc(-c2cccnc2)nc2ccccc12)N1CCCCC1 [Compound 2, Piperidin-1-yl(2-(pyridin-3-yl)quinolin-4-yl)methanone] | Type I | mixed Type I and Type II binding | 
10 | O=C(Nc1ccccc1)c1cc(-c2ccncc2)nc2ccccc12 [Compound 13, N-phenyl-2-(pyridin-4-yl)quinoline-4-carboxamide] |  | clear Type II binding spectra; also recorded: typical Type II binding spectra | 0.0798 µM
11 | O=C(Nc1ccc2ccccc2c1)c1cc(-c2ccncc2)nc2ccccc12 [Compound 7, N-(naphthalen-2-yl)-2-(pyridin-4-yl)quinoline-4-carboxamide] | low-spin shift; also recorded: pure Type II |  | 
